The values that follow come from BindingDB's records for doi:10.1038/nchembio.1629 (George Washington University, 2014).

One experiment addresses T1, Aurora kinase C (Homo sapiens, UniProt Q9UQB9).
T1 sequence (Q9UQB9 whole entry): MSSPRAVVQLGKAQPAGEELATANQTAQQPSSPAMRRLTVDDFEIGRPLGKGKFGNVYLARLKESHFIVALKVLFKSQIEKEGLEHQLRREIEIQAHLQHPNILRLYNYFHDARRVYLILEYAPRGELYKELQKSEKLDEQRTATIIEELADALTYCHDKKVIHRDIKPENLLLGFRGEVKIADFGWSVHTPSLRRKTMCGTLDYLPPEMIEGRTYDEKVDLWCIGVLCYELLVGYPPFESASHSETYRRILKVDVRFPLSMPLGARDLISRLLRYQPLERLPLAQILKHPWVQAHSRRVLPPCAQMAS
In words: Selectivity screening. As to the method:
(§1) The IC50 values of selected kinases were determined using either Z'LYTE, Adapta or LanthaScreen assays.

The target in experiment [1] is Casein kinase II subunit alpha' (Homo sapiens, UniProt P19784). In words: Selectivity screening. As to the method: as §1
The target in experiment [2] is T2, Dual specificity mitogen-activated protein kinase kinase 3 (Homo sapiens, UniProt P46734).
T2 sequence (P46734 whole entry): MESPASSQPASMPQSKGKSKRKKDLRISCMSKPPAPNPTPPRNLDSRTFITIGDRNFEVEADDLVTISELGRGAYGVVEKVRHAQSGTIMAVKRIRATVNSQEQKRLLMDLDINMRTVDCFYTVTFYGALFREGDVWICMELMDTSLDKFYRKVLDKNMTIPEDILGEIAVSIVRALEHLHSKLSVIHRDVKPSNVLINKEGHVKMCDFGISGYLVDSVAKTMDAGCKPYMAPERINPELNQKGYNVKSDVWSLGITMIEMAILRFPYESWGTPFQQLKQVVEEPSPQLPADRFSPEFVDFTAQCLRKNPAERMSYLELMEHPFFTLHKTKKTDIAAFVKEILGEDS
In words: Selectivity screening. As to the method:
as §1

In experiment [3] the target is Dual specificity protein kinase CLK1 (Homo sapiens, UniProt P49759). In words: Selectivity screening. The protocol:
as §1

Experiment [4] addresses Dual specificity protein kinase CLK2 (Homo sapiens, UniProt P49760). In words: Selectivity screening. The protocol:
as §1

Experiment [5] has as its target T3, Dual specificity protein kinase TTK (Homo sapiens, UniProt P33981).
T3 sequence (P33981 whole entry): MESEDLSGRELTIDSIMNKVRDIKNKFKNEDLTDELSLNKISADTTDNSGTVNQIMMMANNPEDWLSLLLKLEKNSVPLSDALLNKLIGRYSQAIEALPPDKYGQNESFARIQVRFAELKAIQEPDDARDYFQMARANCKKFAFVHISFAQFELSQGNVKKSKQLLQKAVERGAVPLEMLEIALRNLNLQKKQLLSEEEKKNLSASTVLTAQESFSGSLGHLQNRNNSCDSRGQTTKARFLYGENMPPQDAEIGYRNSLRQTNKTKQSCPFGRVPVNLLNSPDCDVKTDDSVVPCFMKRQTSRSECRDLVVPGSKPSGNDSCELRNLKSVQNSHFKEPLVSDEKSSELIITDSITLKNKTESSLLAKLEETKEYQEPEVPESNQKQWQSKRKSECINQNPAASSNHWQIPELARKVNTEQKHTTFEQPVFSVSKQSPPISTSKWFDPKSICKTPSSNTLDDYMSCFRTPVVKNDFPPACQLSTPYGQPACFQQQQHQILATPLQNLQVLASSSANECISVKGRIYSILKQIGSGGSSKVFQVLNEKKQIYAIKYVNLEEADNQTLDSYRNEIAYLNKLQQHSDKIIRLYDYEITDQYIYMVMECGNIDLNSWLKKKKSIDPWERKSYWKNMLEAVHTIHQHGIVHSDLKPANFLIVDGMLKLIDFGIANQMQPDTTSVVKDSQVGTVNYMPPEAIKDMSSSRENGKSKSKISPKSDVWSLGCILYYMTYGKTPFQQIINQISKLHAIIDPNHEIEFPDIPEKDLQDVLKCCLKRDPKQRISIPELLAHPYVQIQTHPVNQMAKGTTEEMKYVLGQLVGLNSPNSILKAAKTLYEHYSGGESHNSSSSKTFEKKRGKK
In words: Selectivity screening. As to the method:
as §1

Another experiment addresses Misshapen-like kinase 1 (Homo sapiens, UniProt Q8N4C8). In words: Selectivity screening. The protocol:
as §1

Experiment [6] addresses Mitogen-activated protein kinase 10 (Homo sapiens, UniProt P53779). In words: Selectivity screening. As to the method:
as §1

Experiment [7] has as its target T4, Mitogen-activated protein kinase 3 (Homo sapiens, UniProt P27361). In words: Selectivity screening. The protocol:
as §1

For experiment [8], the target named is T5, Mitogen-activated protein kinase 8 [1-363] (Homo sapiens, UniProt P45983).
T5 construct: 1-363
T5 sequence (P45983 1-363): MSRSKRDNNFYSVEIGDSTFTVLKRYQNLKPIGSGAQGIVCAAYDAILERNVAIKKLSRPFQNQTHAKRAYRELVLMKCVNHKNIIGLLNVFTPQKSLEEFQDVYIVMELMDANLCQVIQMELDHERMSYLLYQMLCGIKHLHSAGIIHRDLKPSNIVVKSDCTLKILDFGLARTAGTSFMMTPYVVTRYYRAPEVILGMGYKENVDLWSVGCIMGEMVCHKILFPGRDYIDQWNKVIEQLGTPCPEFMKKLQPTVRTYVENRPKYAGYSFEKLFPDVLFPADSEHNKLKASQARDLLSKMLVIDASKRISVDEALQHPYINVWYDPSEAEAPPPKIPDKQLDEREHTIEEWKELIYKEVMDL
In words: Selectivity screening. As to the method:
as §1

Experiment [9] addresses Mitogen-activated protein kinase 9 (Homo sapiens, UniProt P45984). In words: Selectivity screening. The protocol:
as §1

For experiment [10], the target named is Mitogen-activated protein kinase kinase kinase kinase 4 (Homo sapiens, UniProt O95819). In words: Selectivity screening. The protocol: as §1
Mitogen-activated protein kinase kinase kinase kinase 4, sequence (O95819 whole entry): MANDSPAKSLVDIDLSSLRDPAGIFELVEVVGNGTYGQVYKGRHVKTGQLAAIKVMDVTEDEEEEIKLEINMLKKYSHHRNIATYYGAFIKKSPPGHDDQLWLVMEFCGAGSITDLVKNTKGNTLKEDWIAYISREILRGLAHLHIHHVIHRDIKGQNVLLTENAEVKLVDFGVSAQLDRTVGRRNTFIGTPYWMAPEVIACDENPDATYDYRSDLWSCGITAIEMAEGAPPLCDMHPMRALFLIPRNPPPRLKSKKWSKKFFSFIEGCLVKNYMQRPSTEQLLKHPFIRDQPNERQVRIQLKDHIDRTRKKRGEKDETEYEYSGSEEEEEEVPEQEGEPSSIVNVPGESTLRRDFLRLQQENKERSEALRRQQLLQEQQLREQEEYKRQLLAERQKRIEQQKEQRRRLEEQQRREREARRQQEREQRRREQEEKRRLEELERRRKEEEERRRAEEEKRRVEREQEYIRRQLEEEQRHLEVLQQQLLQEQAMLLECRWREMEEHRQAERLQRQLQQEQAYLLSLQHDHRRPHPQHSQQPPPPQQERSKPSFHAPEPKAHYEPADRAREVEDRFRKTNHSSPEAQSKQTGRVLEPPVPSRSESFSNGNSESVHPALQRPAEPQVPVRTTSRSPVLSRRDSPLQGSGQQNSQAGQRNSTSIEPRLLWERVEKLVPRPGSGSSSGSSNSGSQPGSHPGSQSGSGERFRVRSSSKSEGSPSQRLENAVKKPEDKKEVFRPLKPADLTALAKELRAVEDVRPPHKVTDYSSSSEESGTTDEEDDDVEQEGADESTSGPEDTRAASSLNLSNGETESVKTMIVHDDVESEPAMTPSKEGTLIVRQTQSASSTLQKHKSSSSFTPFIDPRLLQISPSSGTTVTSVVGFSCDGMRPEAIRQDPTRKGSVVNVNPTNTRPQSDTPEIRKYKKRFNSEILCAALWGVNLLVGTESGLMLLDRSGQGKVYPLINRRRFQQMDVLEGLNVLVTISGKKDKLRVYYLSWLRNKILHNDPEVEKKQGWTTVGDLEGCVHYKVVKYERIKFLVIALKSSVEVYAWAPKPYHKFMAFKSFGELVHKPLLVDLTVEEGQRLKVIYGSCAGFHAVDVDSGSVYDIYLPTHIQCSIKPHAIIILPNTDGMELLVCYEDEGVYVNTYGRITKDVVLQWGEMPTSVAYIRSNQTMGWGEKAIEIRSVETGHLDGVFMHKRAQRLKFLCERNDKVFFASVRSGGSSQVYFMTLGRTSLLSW
Experiment [11] concerns the target T6, Serine/threonine-protein kinase 17A (Homo sapiens, UniProt Q9UEE5).
T6 sequence (Q9UEE5 whole entry): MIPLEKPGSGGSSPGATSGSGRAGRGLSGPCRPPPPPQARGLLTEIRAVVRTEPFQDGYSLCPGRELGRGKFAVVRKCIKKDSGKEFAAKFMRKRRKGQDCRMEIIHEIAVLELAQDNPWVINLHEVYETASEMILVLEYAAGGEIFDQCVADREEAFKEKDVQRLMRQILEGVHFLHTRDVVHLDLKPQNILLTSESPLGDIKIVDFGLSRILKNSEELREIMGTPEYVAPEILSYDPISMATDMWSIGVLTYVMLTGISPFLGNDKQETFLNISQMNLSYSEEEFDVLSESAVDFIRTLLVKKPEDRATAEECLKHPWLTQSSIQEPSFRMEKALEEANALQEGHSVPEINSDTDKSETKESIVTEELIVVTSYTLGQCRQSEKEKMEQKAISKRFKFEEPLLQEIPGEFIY
In words: Selectivity screening. The protocol: as §1

Experiment [12] deals with T7, Serine/threonine-protein kinase D1 (Homo sapiens, UniProt Q15139).
T7 sequence (Q15139 whole entry): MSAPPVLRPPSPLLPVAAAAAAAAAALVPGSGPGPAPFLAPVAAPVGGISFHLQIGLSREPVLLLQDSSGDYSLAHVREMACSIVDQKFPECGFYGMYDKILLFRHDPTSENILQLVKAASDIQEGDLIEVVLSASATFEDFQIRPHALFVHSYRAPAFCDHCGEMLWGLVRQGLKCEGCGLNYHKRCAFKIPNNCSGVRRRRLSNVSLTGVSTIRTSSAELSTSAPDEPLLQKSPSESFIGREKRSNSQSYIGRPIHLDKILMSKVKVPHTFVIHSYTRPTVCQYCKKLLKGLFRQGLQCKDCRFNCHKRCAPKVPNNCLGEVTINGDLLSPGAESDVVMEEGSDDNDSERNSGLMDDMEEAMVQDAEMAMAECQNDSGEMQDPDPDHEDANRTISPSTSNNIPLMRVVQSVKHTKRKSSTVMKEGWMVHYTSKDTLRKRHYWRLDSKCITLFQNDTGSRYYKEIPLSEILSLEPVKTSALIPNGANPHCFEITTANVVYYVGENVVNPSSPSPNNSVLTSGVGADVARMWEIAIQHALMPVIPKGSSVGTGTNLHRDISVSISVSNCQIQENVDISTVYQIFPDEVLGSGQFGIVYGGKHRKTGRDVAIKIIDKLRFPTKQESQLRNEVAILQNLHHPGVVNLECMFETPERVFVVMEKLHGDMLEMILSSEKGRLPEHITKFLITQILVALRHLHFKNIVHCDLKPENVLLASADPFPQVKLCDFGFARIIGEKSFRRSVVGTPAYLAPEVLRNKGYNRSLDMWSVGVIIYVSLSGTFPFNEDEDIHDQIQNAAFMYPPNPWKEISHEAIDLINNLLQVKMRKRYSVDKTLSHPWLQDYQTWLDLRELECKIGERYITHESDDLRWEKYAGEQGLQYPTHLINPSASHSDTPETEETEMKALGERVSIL
In words: Selectivity screening. The protocol:
as §1

For experiment [13], the target named is T8, Serine/threonine-protein kinase haspin [465-798] (Homo sapiens, UniProt Q8TF76).
T8 construct: 465-798
T8 sequence (Q8TF76 whole entry): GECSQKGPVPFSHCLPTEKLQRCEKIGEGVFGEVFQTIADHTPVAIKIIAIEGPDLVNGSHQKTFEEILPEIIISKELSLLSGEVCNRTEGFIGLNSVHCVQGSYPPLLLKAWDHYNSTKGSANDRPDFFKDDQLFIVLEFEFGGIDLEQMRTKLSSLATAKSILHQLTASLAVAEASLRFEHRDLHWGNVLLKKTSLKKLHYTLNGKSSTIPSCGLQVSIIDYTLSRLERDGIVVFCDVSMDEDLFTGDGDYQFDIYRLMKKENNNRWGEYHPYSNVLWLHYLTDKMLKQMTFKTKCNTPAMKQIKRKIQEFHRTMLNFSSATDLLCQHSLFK
In words: Selectivity screening. As to the method: as §1

Experiment [14] addresses T4, Mitogen-activated protein kinase 3. In words: ITC. The following applies: pH 7.5; 15 °C. The protocol:
(§2) For ERK1 and ERK2, the buffer contained 20 mM HEPES (pH 7.5), 150 mM NaCl and 0.5 mM TCEP. For haspin, the buffer contained 20 mM HEPES (pH 7.5), 250 mM NaCl and 0.5 mM TCEP. Titration was performed at 15 °C by injecting 100 µM protein into a reaction cell containing the inhibitors (7 µM).

Experiment [15] concerns the target T8, Serine/threonine-protein kinase haspin [465-798]. In words: ITC. The note with it: pH 7.5; 15 °C. The protocol:
as §2

T4 sequence (P27361 whole entry): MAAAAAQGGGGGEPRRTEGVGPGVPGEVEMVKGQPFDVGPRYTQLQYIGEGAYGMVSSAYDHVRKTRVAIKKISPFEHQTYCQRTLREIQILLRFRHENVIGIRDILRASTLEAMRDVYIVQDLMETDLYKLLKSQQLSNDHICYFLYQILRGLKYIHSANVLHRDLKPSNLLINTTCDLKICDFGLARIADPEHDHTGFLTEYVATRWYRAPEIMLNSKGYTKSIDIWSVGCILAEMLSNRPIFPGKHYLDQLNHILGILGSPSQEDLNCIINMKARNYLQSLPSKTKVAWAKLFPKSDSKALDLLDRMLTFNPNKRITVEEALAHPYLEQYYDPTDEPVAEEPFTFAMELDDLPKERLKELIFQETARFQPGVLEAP
Dual specificity protein kinase CLK2, sequence (P49760 whole entry): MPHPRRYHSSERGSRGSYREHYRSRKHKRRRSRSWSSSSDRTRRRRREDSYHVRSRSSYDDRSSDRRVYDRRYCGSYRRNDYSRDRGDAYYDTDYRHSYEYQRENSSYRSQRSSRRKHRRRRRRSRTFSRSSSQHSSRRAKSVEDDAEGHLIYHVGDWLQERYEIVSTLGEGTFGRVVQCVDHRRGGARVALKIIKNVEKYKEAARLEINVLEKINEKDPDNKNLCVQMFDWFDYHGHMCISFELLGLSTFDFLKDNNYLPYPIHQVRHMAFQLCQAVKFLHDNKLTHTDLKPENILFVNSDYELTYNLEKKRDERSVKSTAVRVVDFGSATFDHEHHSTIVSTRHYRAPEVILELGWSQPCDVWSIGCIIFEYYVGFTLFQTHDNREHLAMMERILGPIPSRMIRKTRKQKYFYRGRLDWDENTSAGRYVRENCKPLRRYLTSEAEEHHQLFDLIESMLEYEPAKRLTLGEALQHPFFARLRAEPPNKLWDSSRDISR
Mitogen-activated protein kinase 10, sequence (P53779 whole entry): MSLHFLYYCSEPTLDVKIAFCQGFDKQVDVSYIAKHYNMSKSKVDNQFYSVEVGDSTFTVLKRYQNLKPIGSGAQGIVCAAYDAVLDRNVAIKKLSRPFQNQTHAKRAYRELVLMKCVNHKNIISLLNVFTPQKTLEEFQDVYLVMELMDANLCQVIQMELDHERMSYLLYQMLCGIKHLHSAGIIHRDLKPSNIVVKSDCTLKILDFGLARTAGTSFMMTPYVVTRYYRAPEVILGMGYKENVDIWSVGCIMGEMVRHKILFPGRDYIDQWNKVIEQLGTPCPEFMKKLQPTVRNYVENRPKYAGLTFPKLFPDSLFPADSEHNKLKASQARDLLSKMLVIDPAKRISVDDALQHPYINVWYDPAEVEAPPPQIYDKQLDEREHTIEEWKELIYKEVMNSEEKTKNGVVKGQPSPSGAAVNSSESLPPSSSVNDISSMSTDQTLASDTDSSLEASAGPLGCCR
Misshapen-like kinase 1, sequence (Q8N4C8 whole entry): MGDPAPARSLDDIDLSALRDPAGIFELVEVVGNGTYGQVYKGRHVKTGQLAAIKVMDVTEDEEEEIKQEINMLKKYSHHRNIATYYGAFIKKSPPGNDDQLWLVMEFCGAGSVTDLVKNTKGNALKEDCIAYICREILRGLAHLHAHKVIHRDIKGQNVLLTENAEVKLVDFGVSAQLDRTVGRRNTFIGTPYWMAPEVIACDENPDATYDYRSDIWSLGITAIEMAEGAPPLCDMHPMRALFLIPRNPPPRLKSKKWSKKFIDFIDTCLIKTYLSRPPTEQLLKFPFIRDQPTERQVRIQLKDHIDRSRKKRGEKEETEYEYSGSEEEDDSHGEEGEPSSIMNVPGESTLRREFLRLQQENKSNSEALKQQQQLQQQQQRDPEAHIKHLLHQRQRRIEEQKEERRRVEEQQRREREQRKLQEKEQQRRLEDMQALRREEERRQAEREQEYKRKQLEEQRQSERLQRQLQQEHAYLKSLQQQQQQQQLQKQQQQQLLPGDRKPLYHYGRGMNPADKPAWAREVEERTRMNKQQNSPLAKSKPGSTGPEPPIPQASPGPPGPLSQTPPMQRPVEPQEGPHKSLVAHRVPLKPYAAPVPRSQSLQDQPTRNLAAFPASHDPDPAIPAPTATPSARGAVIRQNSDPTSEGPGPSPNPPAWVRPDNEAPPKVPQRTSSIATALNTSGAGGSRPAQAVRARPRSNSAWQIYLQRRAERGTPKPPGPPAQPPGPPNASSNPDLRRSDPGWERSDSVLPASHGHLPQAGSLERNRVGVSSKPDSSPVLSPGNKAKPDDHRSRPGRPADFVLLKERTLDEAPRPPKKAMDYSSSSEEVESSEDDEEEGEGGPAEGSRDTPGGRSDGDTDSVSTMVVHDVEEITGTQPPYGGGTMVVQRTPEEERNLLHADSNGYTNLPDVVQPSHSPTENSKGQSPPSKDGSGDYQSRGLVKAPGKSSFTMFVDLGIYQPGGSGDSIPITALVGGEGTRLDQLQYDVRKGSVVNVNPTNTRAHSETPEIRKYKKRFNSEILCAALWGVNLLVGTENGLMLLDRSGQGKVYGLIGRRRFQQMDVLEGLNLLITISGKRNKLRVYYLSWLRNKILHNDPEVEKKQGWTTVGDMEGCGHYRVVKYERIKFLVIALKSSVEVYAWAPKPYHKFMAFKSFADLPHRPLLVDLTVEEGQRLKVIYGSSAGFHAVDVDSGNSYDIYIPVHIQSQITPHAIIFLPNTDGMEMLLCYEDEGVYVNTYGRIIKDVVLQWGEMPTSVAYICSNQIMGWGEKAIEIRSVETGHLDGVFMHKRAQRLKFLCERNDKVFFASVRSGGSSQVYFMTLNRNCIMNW
Dual specificity protein kinase CLK1, sequence (P49759 whole entry): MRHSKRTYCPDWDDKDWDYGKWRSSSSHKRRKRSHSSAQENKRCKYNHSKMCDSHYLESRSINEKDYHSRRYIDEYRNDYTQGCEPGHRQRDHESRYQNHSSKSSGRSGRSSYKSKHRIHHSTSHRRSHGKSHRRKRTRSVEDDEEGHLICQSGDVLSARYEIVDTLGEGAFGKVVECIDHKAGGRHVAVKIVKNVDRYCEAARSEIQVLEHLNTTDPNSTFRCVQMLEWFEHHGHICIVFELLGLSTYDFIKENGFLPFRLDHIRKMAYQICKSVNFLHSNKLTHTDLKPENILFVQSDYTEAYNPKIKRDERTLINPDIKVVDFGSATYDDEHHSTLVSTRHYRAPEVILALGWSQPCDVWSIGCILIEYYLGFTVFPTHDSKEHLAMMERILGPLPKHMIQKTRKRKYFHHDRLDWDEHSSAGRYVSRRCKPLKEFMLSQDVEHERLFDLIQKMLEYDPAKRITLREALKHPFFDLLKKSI

As to `O=C(Nc1ccc2[nH]nc(-c3ccncc3)c2c1)[C@H]1CCN(CC(=O)N2CCN(c3ccc(-c4ncccn4)cc3)CC2)C1` [SCH772984], the concentration for half-maximal inhibition (IC50) (as a rule, the point on the concentration scale where inhibition reaches its midpoint) is 0.58 µM against Aurora kinase C; over 10 µM in experiment [1]; 0.304 µM in experiment [2]; 0.508 µM in [3]; 0.104 µM in [4]; 0.193 µM in experiment [5]. The IC50 at Misshapen-like kinase 1 amounted to 0.942 µM; in [6], 0.632 µM; in [7], 0.0083 µM; in experiment [8] it was 1.08 µM; in experiment [9] it was 0.783 µM; in experiment [10] it was 0.503 µM. For the same molecule, the concentration for half-maximal inhibition (IC50) in [11] stood at 0.114 µM; in [12], 0.535 µM; in [13], 0.398 µM. Besides, the equilibrium dissociation constant (Kd) (as a rule, the concentration at which binding is half-saturated) in experiment [14] came out at 0.213 µM; in experiment [15], 0.297 µM.
